Our source for the IC50 values is patent US20240409557A1, “5,6-FUSED AND 6,6-FUSED BICYCLIC ALCOHOLS AND ETHERS AND COMPOSITIONS FOR USE AS 15-PROSTAGLANDIN DEHYDROGENASE MODULATORS” (AMGEN INC., priority 2023, published 2024).

For this experiment, the target named is T1, human recombinant 15-PGDH (Homo sapiens, UniProt P15428).
T1 sequence (P15428 1-266): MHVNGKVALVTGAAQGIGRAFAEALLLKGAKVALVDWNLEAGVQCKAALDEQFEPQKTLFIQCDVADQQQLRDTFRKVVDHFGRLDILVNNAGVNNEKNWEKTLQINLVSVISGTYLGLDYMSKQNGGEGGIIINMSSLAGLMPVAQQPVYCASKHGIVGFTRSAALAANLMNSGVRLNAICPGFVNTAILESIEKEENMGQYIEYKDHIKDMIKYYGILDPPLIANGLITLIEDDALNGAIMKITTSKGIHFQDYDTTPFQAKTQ
The experiment can be described thus: Recombinant 15-PGDH enzymatic inhibition assay (PGDH-Lumi, NADH signal). Format: biochemical. To be noted: recombinant 15-PGDH; 15 min pre-incubation, 60 min reaction with PGE2 and NAD+, NADH signal. The procedure:
These assays measured 15-PGDH enzymatic activity by quantifying the amount of NADH produced during a 60-minute reaction initiated by the addition of PGE2 and NAD+. Under the conditions of these experiments, the increase of NADH signal upon oxidation of PGE2 and reduction of NAD+ was linearly proportional to 15-PGDH enzymatic activity. The recombinant human, mouse, rat and dog 15-PGDH enzymatic assays were performed in a 25 μL volume of reaction buffer containing 50 mM Tris, pH 7.5, 0.01% Tween-20 and […] DTT in a 384-well microtiter plate. In concentration-response experiments with tested compounds, 22 concentrations from 2-fold serial dilutions in DMSO were pre-incubated with 15-PGDH for 15 minutes at room temperature. Then, PGE2 and β-NAD+ were added to initiate the 15-PGDH reaction. After 60 minutes at room temperature, the reaction was quenched and NADH signal was measured using a microtiter plate reader.
The following data (Table 27-1) provides the IC50 in μM of each compound for inhibiting enzymatic activity of the recombinant 15-PGDH in the assay described above.
Take `CN1CC(C(O)c2cc3ccc(-c4cnc5nn(C)cc5c4)nc3s2)C1` (stereo not drawn) [Compound B42, (1-methyl-3-azetidinyl)(6-(2-methyl-2H-pyrazolo[3,4-b]pyridin-5-yl)thieno[2,3-b]pyridin-2-yl)methanol]: the IC50 was 12.8 nM.
Regarding `CN1CCC1C(O)c1cc2ccc(-c3cnc4nn(C)cc4c3)nc2s1` (stereo not drawn) [Compound B45], the IC50 came out at 8.64 nM.
As for `CCCC(O)c1cc2ccc(-c3cnc4nn(C)cc4c3)cc2s1` (stereo not drawn) [Compound B54, 1-(6-(2-methyl-2H-pyrazolo[3,4-b]pyridin-5-yl)-1-benzothiophen-2-yl)-1-butanol], the IC50 is 9.35 nM.
Regarding `COCCC(O)c1cc2ccc(-c3cnc4nn(C)cc4c3)cc2s1` (stereo not drawn) [Compound B59, 3-methoxy-1-(6-(2-methyl-2H-pyrazolo[3,4-b]pyridin-5-yl)-1-benzothiophen-2-yl)-1-propanol], the IC50 is 8.41 nM.
As to `CN1CCC(C(O)c2cc3ccc(-c4cnc5nn(C)cc5c4)nc3s2)C1` (stereo not drawn) [Compound B62, (6-(2-methyl-2H-pyrazolo[3,4-b]pyridin-5-yl)thieno[2,3-b]pyridin-2-yl)(1-methyl-3-pyrrolidinyl)methanol], the IC50 was 20.7 nM.
Consider `CN1CCCC(C(O)c2cc3ccc(-c4cnc5nn(C)cc5c4)nc3s2)C1` (stereo not drawn) [Compound B63], for which the half-maximal inhibitory concentration (IC50) amounted to 15 nM.
Under `Nc1c(C(O)C2CC(F)(F)C2)sc2nc(-c3cncnc3)ccc12` (stereo not drawn) [Compound B71, (3-amino-6-(5-pyrimidinyl)thieno[2,3-b]pyridin-2-yl)(3,3-difluorocyclobutyl)methanol] stands 0.749 nM.
As for `Cn1nnc2cc(-c3ccc4cc([C@@H](O)C5CC(F)(F)C5)sc4n3)cnc21` [Compound B82S, (S)-(3,3-difluorocyclobutyl)(6-(3-methyl-3H-[1,2,3]triazolo[4,5-b]pyridin-6-yl)thieno[2,3-b]pyridin-2-yl)methanol], the IC50 is 1.65 nM.
As for `Cn1cc2cc(-c3cnc4sc([C@H](O)C5CC(F)(F)C5)cc4n3)cnc2n1` [Compound B96R, (R)-(3,3-difluorocyclobutyl)(2-(2-methyl-2H-pyrazolo[3,4-b]pyridin-5-yl)thieno[2,3-b]pyrazin-6-yl)methanol], the half-maximal inhibitory concentration (IC50) turned out to be 0.44 nM.
`Cn1cc2cc(-c3cnc4sc([C@@H](O)C5CC(F)(F)C5)cc4n3)cnc2n1` [Compound B96S, (S)-(3,3-difluorocyclobutyl)(2-(2-methyl-2H-pyrazolo[3,4-b]pyridin-5-yl)thieno[2,3-b]pyrazin-6-yl)methanol]: the IC50 is 3.1 nM.
As for `COCCC(C)(O)c1cc2ccc(-c3cnc4nn(C)cc4c3)nc2s1` (stereo not drawn) [Compound C1, 4-methoxy-2-(6-(2-methyl-2H-pyrazolo[3,4-b]pyridin-5-yl)thieno[2,3-b]pyridin-2-yl)-2-butanol], the IC50 came out at 43.8 nM.
In the case of `Cn1cc2cc(-c3ccc4cc(C(C)(O)C(F)(F)F)sc4n3)cnc2n1` (stereo not drawn) [Compound C2, 1,1,1-trifluoro-2-(6-(2-methyl-2H-pyrazolo[3,4-b]pyridin-5-yl)thieno[2,3-b]pyridin-2-yl)-2-propanol], the IC50 turned out to be 225 nM.
Under `COCCC(O)(c1cc2ccc(-c3cnc4nn(C)cc4c3)nc2s1)C(F)(F)F` (stereo not drawn) [Compound C3, 1,1,1-trifluoro-4-methoxy-2-(6-(2-methyl-2H-pyrazolo[3,4-b]pyridin-5-yl)thieno[2,3-b]pyridin-2-yl)-2-butanol] stands 807 nM.
Under `CN1CCC(O)(c2cc3ccc(-c4cnc5nn(C)cc5c4)nc3s2)C1` (stereo not drawn) [Compound C4, 1-methyl-3-(6-(2-methyl-2H-pyrazolo[3,4-b]pyridin-5-yl)thieno[2,3-b]pyridin-2-yl)-3-pyrrolidinol] stands 1800 nM.
Regarding `COCC(C)(O)c1cc2ccc(-c3cnc4nn(C)cc4c3)nc2s1` (stereo not drawn) [Compound C6, 1-methoxy-2-(6-(2-methyl-2H-pyrazolo[3,4-b]pyridin-5-yl)thieno[2,3-b]pyridin-2-yl)-2-propanol], the IC50 was 544 nM.

One may read the IC50 as the concentration at which inhibition is half-maximal.
